Test results as given in PubChem BioAssay (NCI).
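Cells were grown in 96-well plates and exposed to each compound for 48 hours at five concentrations; endpoints were interpolated linearly between bracketing concentrations, or set to the highest concentration if not reached. The concentration for 50% growth inhibition is given as GI50. At the TGI there is no net growth.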

System: MDA-MB-468 breast
Experiment: inhibition of tumour cell growth, NCI panel, 48 h

SMILES	GI50 [nM]	TGI [µM]
N#C[Se]CCCNS(=O)(=O)C1CC2C=CC1C2 (stereo not given)	1290	4.16
COc1ccc(/C=C/C(=O)c2ccc(OC)c(OC)c2)cc1O	3590	19.6
Cc1ccc(NC(=O)c2sc3nc4c(cc3c2N)C(=O)CCC4)cc1C	314	> 100
Cc1ccc(Cl)c(Nc2ccccc2C(=O)O)c1Cl	25900	67.2
COc1cc(-c2cc(-c3cc(OC)c(OC)c(OC)c3)nc3nc(N)[nH]c(=O)c23)ccc1Oc1ccnc2cc(Cl)ccc12	3240	> 100
COc1ccc(C2=NN(C(=O)c3cc(OC)c(OC)c(OC)c3)C(c3ccc(N(C)C)cc3)C2)cc1 (stereo not given)	236	0.644
O=C1OCC2=C1C(c1ccc(Cl)c(Cl)c1)c1cc3c(cc1N2CCO)CCC3 (stereo not given)	109	0.35
CCCCCCCCCCCCCCCCC(=O)O.CCCCCCCCCCCCCCCCCC(=O)O.CCCCCCCCCCCCCCCCCC(=O)O.CCCCCCCCCCCCCCCCCC(=O)O.CCCCCCCCCCCCCCCCCC(=O)O.CO[CH-]OC12COC1CC(O)C1(C)C(O)C(OC(C)O)C3=C(C)C(OC(=O)C(O)C([NH-])c4ccccc4)CC(O)(C(OC(=O)c4ccccc4)C21)C3(C)C.[Cu+].[Zn].[Zn].[Zn].[Zn].[Zn] (stereo not given)	3.38	0.0166
COC1=CC(c2ccc[nH]2)=N/C1=C\c1[nH]c(C)c(C(=O)CCCCC(=O)Oc2ccc3c(c2)CCC2C3CC[C@]3(C)[C@@H](O)CC[C@@H]23)c1C (stereo not given in full)	4920	> 100
CCN(CC)Cc1c(/C=C\c2cc(OC)c(OC)c(OC)c2)ccc(OC)c1O	7970	34
CCOC(=O)C(=O)/C(=C/N1C(=O)CC(=O)NC1=S)C(=O)OCC	> 100000	> 100
Cn1c(/C=C/[N+](=O)[O-])cc2ccccc21	1770	3.37
CN1CCN(Cc2ccc(NC(=O)c3cccc(C#Cc4cnc(N)c5ncccc45)c3F)cc2C(F)(F)F)CC1	6200	16
CN1C/C=C/CCOc2cccc(c2)-c2ccnc(n2)Nc2cccc(c2)C1	36.6	0.107
COc1cc(C(=O)Nc2cc(OC)c3ccn(C)c3c2)cc2c1C[C@]1(C)CC[C@@H](O)C(C)(C)[C@H]1O2	488	3.01
CC1(C)[C@@H](OC(=O)CCC(=O)O)CC[C@]2(C)[C@H]3C(=O)C=C4[C@@H]5C[C@@](C)(C(=O)O)CC[C@]5(C)CC[C@@]4(C)[C@]3(C)CC[C@@H]12	78600	189
O=C1c2cccc(NCCN=Cc3ccccc3O)c2C(=O)c2c(NCCN=Cc3ccccc3O)cccc21		0.191
O=C(/C=C/c1csc(Br)n1)NO	2900	21.5
